Experimental data published in article PMC5587909, “Inhibition of the ATP Synthase Eliminates the Intrinsic Resistance of Staphylococcus aureus towards Polymyxins” (mBio, 2017).
In brackets after ≈: the same amount, converted by molar mass.

How the values were obtained:
S. aureus = details: cited from earlier work
[1] = system: S. aureus JE2 vraF mutant; format: cell-based, Staphylococcus aureus
Excerpt: (§1) The strains used in this study include S. aureus strain JE2 (plasmid-cured derivative of USA300 LAC) and all derivative strains within the Nebraska Transposon Mutant Library (NTML), consisting of 1,920 unique transposon mutants with inactivation of nonessential genes ([15]). The bursa aurealis transposon used to create the collection contains the resistance cassette ermB, which confers resistance to erythromycin ([15]). Additionally we used S. aureus SA113 and two derivatives, SA113 ΔdltA ([9]) and SA113 ΔmprF ([10]). All bacterial strains were cultured at 37°C in tryptic soy broth (TSB) or on tryptic soy agar (TSA), with antimicrobial agents added as indicated. Two methods have been employed to determine MICs to various antimicrobial agents. (i) A 2-fold broth microdilution assay in TSB (100 µl) with an initial inoculum of approximately 5 × 10^5 cells/ml was employed to determine the MICs of polymyxin B sulfate (Sigma), gallidermin (Santa Cruz Biotechnology), nisin (Sigma), bacitracin (Sigma), and LL-37 (Isca Biochemicals). (ii) An Etest (BioMérieux) performed on TSA plates was employed to determine MICs for polymyxin B, colistin, ciprofloxacin, oxacillin, linezolid, gentamicin, vancomycin, and daptomycin. The MIC was determined upon incubation at 37°C for 22 h. When indicated, the Etest (BioMérieux) was performed on Mueller-Hinton agar plates (cation adjusted for calcium and magnesium).

S. aureus JE2 (WT) [2] = format: cell-based, Staphylococcus aureus; details: 2-fold broth microdilution in TSB (100 µl), inoculum approx. 5 × 10^5 cells/ml, 37°C, 22 h
Excerpt: as §1

[3] = system: S. aureus JE2 graR mutant; format: cell-based, Staphylococcus aureus
Excerpt: as §1

[4] = system: S. aureus JE2 atpA mutant; format: cell-based, Staphylococcus aureus; details: 2-fold broth microdilution in TSB (100 µl), inoculum approx. 5 × 10^5 cells/ml, 37°C, 22 h
Excerpt: as §1

[5] = system: S. aureus JE2 vraG mutant; format: cell-based, Staphylococcus aureus; details: 2-fold broth microdilution in TSB (100 µl), inoculum approx. 5 × 10^5 cells/ml, 37°C, 22 h
Excerpt: as §1

[6] = system: mitochondrial ATP synthase; details: cited from earlier work
S. aureus JE2 (WT) [7] = experiment: Kill curve experiment, polymyxin B with or without oligomycin A; format: cell-based, Staphylococcus aureus; details: WT JE2 in TSB; oligomycin A alone at 8 μg/ml
Excerpt: The ATP synthase is a well-described protein complex, and multiple inhibitors have been identified that interfere with its function—e.g., the macrolide oligomycin A ([32]). […] The combinatory efficacy of PMB and oligomycin A is similar to the observed killing efficacy of PMB against the atpA mutant.
FIG 4 Improved killing efficacy of PMB upon inhibition of the ATP synthase. […] The data represent the average from three measurements, with error bars showing 95% confidence intervals.
From overnight cultures of S. aureus JE2 and the derivative atpA mutant, 100 μl was diluted into 900 μl fresh TSB medium in a Falcon tube and grown for 1 h for the cells to reach the early exponential phase. After 1 h, the cultures were diluted into 10 ml fresh TSB medium in 100-ml Erlenmeyer flasks, reaching an initial cell count of approximately 10^6 cells/ml. Oligomycin A (Sigma) was added to flasks as indicated at a concentration of 8 μg/ml. […] CFU were determined on TSA plates before addition of oligomycin A (time zero [T0]), before addition of polymyxin B (time 30 min [T30]), and every hour for the following 4 h.

COc1nc2ccc(Br)cc2cc1[C@@H](c1ccccc1)[C@@](O)(CCN(C)C)c1cccc2ccccc12 [Bedaquiline, bedaquiline]
activity against S. aureus (S. aureus): limited or no activity

CC[C@H](C)[C@H](NC(=O)[C@H](CCCCN)NC(=O)[C@H](CCC(=O)O)NC(=O)[C@H](CCCCN)NC(=O)[C@H](CO)NC(=O)[C@H](CCCCN)NC(=O)[C@H](CCCNC(=N)N)NC(=O)[C@H](Cc1ccccc1)NC(=O)[C@H](Cc1ccccc1)NC(=O)[C@H](CC(=O)O)NC(=O)CNC(=O)[C@H](CC(C)C)NC(=O)[C@@H](N)CC(C)C)C(=O)NCC(=O)N[C@@H](CCCCN)C(=O)N[C@@H](CCC(=O)O)C(=O)N[C@@H](Cc1ccccc1)C(=O)N[C@@H](CCCCN)C(=O)N[C@@H](CCCNC(=N)N)C(=O)N[C@H](C(=O)N[C@H](C(=O)N[C@@H](CCC(N)=O)C(=O)N[C@@H](CCCNC(=N)N)C(=O)N[C@H](C(=O)N[C@@H](CCCCN)C(=O)N[C@@H](CC(=O)O)C(=O)N[C@@H](Cc1ccccc1)C(=O)N[C@@H](CC(C)C)C(=O)N[C@@H](CCCNC(=N)N)C(=O)N[C@@H](CC(N)=O)C(=O)N[C@@H](CC(C)C)C(=O)N[C@H](C(=O)N1CCC[C@H]1C(=O)N[C@@H](CCCNC(=N)N)C(=O)N[C@H](C(=O)N[C@@H](CCC(=O)O)C(=O)N[C@@H](CO)C(=O)O)[C@@H](C)O)C(C)C)[C@@H](C)CC)C(C)C)[C@@H](C)CC [LL-37]
MIC, vraF ([1]; 2-fold broth microdilution in TSB (100 µl), inoculum approx. 5 × 10^5 cells/ml, 37°C, 22 h, vraF mutant): 64 µg/mL (≈ 14.2 µM) | fold increased sensitivity relative to WT ([1]; vraF mutant vs WT JE2, broth microdilution in TSB): at least 2 fold | MIC, WT (S. aureus JE2 (WT) [2]): >128 µg/mL | MIC, graR ([3]; 2-fold broth microdilution in TSB (100 µl), inoculum approx. 5 × 10^5 cells/ml, 37°C, 22 h, graR mutant): 64 µg/mL (≈ 14.2 µM) | fold increased sensitivity relative to WT ([3]; graR mutant vs WT JE2, broth microdilution in TSB): at least 2 fold | MIC, atpA [4]: >128 µg/mL | MIC, vraG [5]: 128 µg/mL (≈ 28.5 µM)

oligomycin A
inhibition of the mitochondrial ATP synthase (nonselective) [6]: inhibits the mitochondrial ATP synthase | killing efficacy (CFU over time) (S. aureus JE2 (WT) [7]): did not display any killing efficacy
